Common to all, as to assay: relative viability (nuclei count vs DMSO), 5 days (fraction); higher = more cells survive
Compound in the experiment “Doramapimod + Linsitinib”: Cc1ccc(-n2nc(C(C)(C)C)cc2NC(=O)Nc2ccc(OCCN3CCOCC3)c3ccccc23)cc1 [Doramapimod] + C[C@]1(O)C[C@@H](c2nc(-c3ccc4ccc(-c5ccccc5)nc4c3)c3c(N)nccn32)C1 [Linsitinib] (partner 1 µM)
In short, it runs like this:
(§1)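 Lung cancer cell lines were seeded in 1536-well plates and dosed by pin tool the next day, with either a single drug or a fixed anchor-drug dose combined with five library-drug doses (not always all listed) spaced in √10 steps. Five days later, one step fixed the cells and stained their nuclei (final 0.05% Triton X-100, 1% formaldehyde, 1 ug/ml Hoechst), and nuclei were counted on 4× images. Relative viability is the nuclei count in treated wells divided by the count in vehicle wells, and each value is the median of duplicate plates.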

Compound in the experiment “Doramapimod + Tozasertib”: Cc1ccc(-n2nc(C(C)(C)C)cc2NC(=O)Nc2ccc(OCCN3CCOCC3)c3ccccc23)cc1 [Doramapimod] + Cc1cc(Nc2cc(N3CCN(C)CC3)nc(Sc3ccc(NC(=O)C4CC4)cc3)n2)n[nH]1 [Tozasertib] (partner 0.1 µM)
In short, it runs like this:
as §1

Compound in the experiment “Doramapimod + Phenformin”: Cc1ccc(-n2nc(C(C)(C)C)cc2NC(=O)Nc2ccc(OCCN3CCOCC3)c3ccccc23)cc1 [Doramapimod] + N=C(N)NC(=N)NCCc1ccccc1 [Phenformin] (partner 250 µM)
In short, it runs like this:
as §1

Compound in the experiment “RAF265 + Vorinostat”: Cn1c(Nc2ccc(C(F)(F)F)cc2)nc2cc(Oc3ccnc(-c4ncc(C(F)(F)F)[nH]4)c3)ccc21 [RAF265] + O=C(CCCCCCC(=O)Nc1ccccc1)NO [Vorinostat] (partner 1 µM)
In short, it runs like this: as §1

In the case of UMC-11, the relative viability with Doramapimod + Linsitinib (first compound 0.02 µM) came out at 0.946; with Doramapimod + Linsitinib (first compound 0.06325 µM), 0.992; in the experiment with Doramapimod + Linsitinib (first compound 0.2 µM) it was 1.03; with Doramapimod + Linsitinib (first compound 0.6325 µM), 1; with Doramapimod + Linsitinib (first compound 2 µM), 0.718; with Doramapimod + Tozasertib (first compound 0.02 µM), 0.2. The relative viability in the experiment with Doramapimod + Tozasertib (first compound 0.06325 µM) was found to be 0.174; with Doramapimod + Tozasertib (first compound 0.2 µM), 0.199; with Doramapimod + Tozasertib (first compound 0.6325 µM), 0.195; with Doramapimod + Tozasertib (first compound 2 µM) it was 0.205; with Doramapimod + Phenformin (first compound 0.02 µM), 0.319; in the experiment with Doramapimod + Phenformin (first compound 0.06325 µM) it was 0.32. The relative viability in the experiment with Doramapimod + Phenformin (first compound 0.2 µM) turned out to be 0.339; in the experiment with Doramapimod + Phenformin (first compound 0.6325 µM), 0.368; with Doramapimod + Phenformin (first compound 2 µM) it was 0.309; with RAF265 + Vorinostat (first compound 0.01 µM) it was 0.458; with RAF265 + Vorinostat (first compound 0.03162 µM), 0.4; with RAF265 + Vorinostat (first compound 0.1 µM), 0.343. Besides, the results for the relative viability with RAF265 + Vorinostat (first compound 0.3162 µM) and with RAF265 + Vorinostat (first compound 1 µM) were 0.357 and 0.32, respectively.

For the origin of these results see the supplement of paper PMC10307832.
